Laboratory results as given in PubChem BioAssay AID1259411 (Chemical Carcinogenesis Research Information System (CCRIS), 2018).
Active and inactive are the calls of the source. No rule for the calls is given here.

Tested on: rodent carcinogenicity bioassays, tumor incidence
Assay: CCRIS carcinogenicity studies
Summary of the method: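 NCI-built, expert-reviewed records of carcinogenicity and related test outcomes (mutagenicity, tumor promotion/inhibition) compiled from published and report sources, historical span 1985-2011, not updated.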

With C=CCOC(=O)c1ccccc1C(=O)OCC=C the carcinogen call (Species: MOUSE, Strain/Sex: B6C3F1/FEMALE, Route: GAVAGE, Dose: 0, 150, 300 MG/KG IN CORN OIL FOR 5 D/WK FOR 103 WK (STUDY DURATION: 103 WK), Dose: 0, 150, 300 MG/KG IN CORN OIL FOR 5 D/WK FOR 103 WK (STUDY DURATION: 103 WK), Tumor Site: Type of Lesion: FORESTOMACH: SQUAMOUS CELL PAPILLOMA) was “equivocal”, the carcinogen call (Species: MOUSE, Strain/Sex: B6C3F1/MALE, Route: GAVAGE, Dose: 0, 150, 300 MG/KG IN CORN OIL FOR 5 D/WK FOR 103 WK (STUDY DURATION: 103 WK), Dose: 0, 150, 300 MG/KG IN CORN OIL FOR 5 D/WK FOR 103 WK (STUDY DURATION: 103 WK), Tumor Site: Type of Lesion: FORESTOMACH: SQUAMOUS CELL PAPILLOMA, HEMATOPOIETIC SYSTEM: LYMPHOMA) was “equivocal” and the carcinogen call (Species: RAT, Strain/Sex: F344/FEMALE, Route: GAVAGE, Dose: 0, 50, 100 MG/KG IN CORN OIL 5 D/WK FOR 103 WK (STUDY DURATION: 105 WK), Dose: 0, 50, 100 MG/KG IN CORN OIL 5 D/WK FOR 103 WK (STUDY DURATION: 105 WK), Tumor Site: Type of Lesion: HEMATOPOIETIC SYSTEM: MONONUCLEAR CELL LEUKEMIA) was “equivocal”. For the same compound, the carcinogen call (Species: RAT, Strain/Sex: F344/MALE, Route: GAVAGE, Dose: 0, 50, 100 MG/KG IN CORN OIL 5 D/WK FOR 103 WK (STUDY DURATION: 105 WK), Dose: 0, 50, 100 MG/KG IN CORN OIL 5 D/WK FOR 103 WK (STUDY DURATION: 105 WK)) was “inactive; negative”.
Cc1cccc2c1cc(C)c1c3c(ccc12)C(O)C(O)C1OC31 (centres undefined) was tested, and the carcinogen call (Species: MOUSE, Strain/Sex: ICR/FEMALE, Route: INTRAPERITONEAL, Dose: 0, 8 NMOL IN 5 µL DMSO TO PUPS ON D 1/OF LIFE THEN 16 NMOL IN 10 µL ON D 8 AND 3 NMOL IN 20 µL ON D 15 (STUDY DURATION:, Tumor Site: Type of Lesion: LUNG: TUMOR) was “active; positive” and the carcinogen call (Species: MOUSE, Strain/Sex: ICR/MALE, Route: INTRAPERITONEAL, Dose: 0, 8 NMOL IN 5 µL DMSO TO PUPS ON D 1/OF LIFE THEN 16 NMOL IN 10 µL ON D 8 AND 3 NMOL IN 20 µL ON D 15 (STUDY DURATION:, Tumor Site: Type of Lesion: LUNG: TUMOR, LIVER: TUMOR) was “active; positive”.
In the case of CCCc1ccc2c(c1)OCO2, the carcinogen call (Species: MOUSE, Route: ORAL, Tumor Site: Type of Lesion: LIVER, LUNG) is reported as “active; positive” and the carcinogen call (Species: RAT, Route: ORAL, Tumor Site: Type of Lesion: ESOPHAGUS) is reported as “active; positive”.
For ClCC1CO1 (centres undefined), the carcinogen call (Species: MOUSE, Route: DERMAL, Tumor Site: Type of Lesion: INTEGUMENTARY SYSTEM (SKIN)) was “active; positive”, the carcinogen call (Species: MOUSE, Route: SUBCUTANEOUS, Tumor Site: Type of Lesion: INJECTION SITE) was “active; positive” and the carcinogen call (Species: RAT, Strain/Sex: WISTAR/FEMALE, Route: GAVAGE, Dose: 0, 2, 10 MG/KG IN WATER 5 D/WK FOR 104 WK (STUDY DURATION: 24 MO), Dose: 0, 2, 10 MG/KG IN WATER 5 D/WK FOR 104 WK (STUDY DURATION: 24 MO), Tumor Site: Type of Lesion: FORESTOMACH: SQUAMOUS CELL CARCINOMA) was “active; positive”. The carcinogen call (Species: RAT, Strain/Sex: WISTAR/MALE, Route: GAVAGE, Dose: 0, 2, 10 MG/KG IN WATER 5 D/WK FOR 104 WK (STUDY DURATION: 24 MO), Dose: 0, 2, 10 MG/KG IN WATER 5 D/WK FOR 104 WK (STUDY DURATION: 24 MO), Tumor Site: Type of Lesion: FORESTOMACH: SQUAMOUS CELL CARCINOMA) was “active; positive”.
With CN(C#N)N=O the carcinogen call (Species: RAT, Strain/Sex: SPRAGUE-DAWLEY/FEMALE, Route: ORAL, Dose: 0, 6.9 MG/KG IN 25 ML DRINKING WATER DAILY (STUDY DURATION: >11 MO), Tumor Site: Type of Lesion: FORESTOMACH: SQUAMOUS CELL CARCINOMA, ESOPHAGUS: SQUAMOUS CELL PAPILLOMA OR SQUAMOUS CELL CARCINOMA) was “active; positive”.
[Ni+2].[OH-].[OH-] was tested, and the carcinogen call (Species: RAT, Strain/Sex: WISTAR, Route: INTRAMUSCULAR IMPLANT, Tumor Site: Type of Lesion: IMPLANT SITE) was “active; positive”.
With CCN(CC)CC#CC(C)(C)OC(=O)C(O)(c1ccccc1)C1CCCCC1 (centres undefined) the carcinogen call (Species: MOUSE, Strain/Sex: B6C3F1/FEMALE, Route: ORAL, Dose: 0, 30, 100, 300 MG/KG/D IN DIET FOR 78 WK (STUDY DURATION: 78 WK), Dose: 0, 30, 100, 300 MG/KG/D IN DIET FOR 78 WK (STUDY DURATION: 78 WK)) was “inactive; negative”, the carcinogen call (Species: MOUSE, Strain/Sex: B6C3F1/MALE, Route: ORAL, Dose: 0, 30, 100, 300 MG/KG/D IN DIET FOR 78 WK (STUDY DURATION: 78 WK), Dose: 0, 30, 100, 300 MG/KG/D IN DIET FOR 78 WK (STUDY DURATION: 78 WK)) was “inactive; negative” and the carcinogen call (Species: RAT, Strain/Sex: F344/FEMALE, Route: ORAL, Dose: 0, 30, 100 MG/KG/D IN DIET FOR 2 YR (STUDY DURATION: 2 YR), Dose: 0, 30, 100 MG/KG/D IN DIET FOR 2 YR (STUDY DURATION: 2 YR)) was “inactive; negative”. For the same compound, the carcinogen call (Species: RAT, Strain/Sex: F344/MALE, Route: ORAL, Dose: 0, 10, 30, 100 MG/KG/D IN DIET FOR 2 YR (STUDY DURATION: 2 YR), Dose: 0, 10, 30, 100 MG/KG/D IN DIET FOR 2 YR (STUDY DURATION: 2 YR)) was “inactive; negative”.
In the case of ON=C1CCCC1, the carcinogen call (Species: RAT, Strain/Sex: F344/MALE, Route: GAVAGE, Dose: 0, 2 MMOL/KG BW 1/WK FOR 50 WK (STUDY DURATION: 83 WK)) is reported as “inactive; negative”.
Cc1c(C(=O)O)c(O)cc2c1C(=O)c1c(O)c([C@@H]3O[C@@H](CO)[C@H](O)[C@@H](O)[C@H]3O)c(O)c(O)c1C2=O was tested, and the carcinogen call (Species: RAT, Strain/Sex: WISTAR/FEMALE, Route: ORAL, Dose: 0, 50, 150, 500 MG/KG/D IN BASAL DIET TO PUPS OF PARENTS GIVEN THE SAME DIETARY DOSE LEVELS FOR 60 D PRIOR TO MATING AND, Dose: 0, 50, 150, 500 MG/KG/D IN BASAL DIET TO PUPS OF PARENTS GIVEN THE SAME DIETARY DOSE LEVELS FOR 60 D PRIOR TO MATING AND) was “inactive; negative” and the carcinogen call (Species: RAT, Strain/Sex: WISTAR/MALE, Route: ORAL, Dose: 0, 50, 150, 500 MG/KG/D IN BASAL DIET TO PUPS OF PARENTS GIVEN THE SAME DIETARY DOSE LEVELS FOR 60 D PRIOR TO MATING AND, Dose: 0, 50, 150, 500 MG/KG/D IN BASAL DIET TO PUPS OF PARENTS GIVEN THE SAME DIETARY DOSE LEVELS FOR 60 D PRIOR TO MATING AND) was “inactive; negative”.
In the case of O=NN1CCC[C@H]1c1cccnc1, the carcinogen call (Species: HAMSTER, Route: SUBCUTANEOUS, Tumor Site: Type of Lesion: TRACHEA) is reported as “active; positive”, the carcinogen call (Species: MINK, Strain/Sex: MALE, FEMALE, Route: SUBCUTANEOUS, Dose: 0, 11.9 MILLIMOLAR (TOTAL DOSE) GIVEN IN SUBDOSES 2/WK FOR 38 WK (STUDY DURATION: 185 WK), Tumor Site: Type of Lesion: NASAL CAVITY: TUMORS) is reported as “active; positive” and the carcinogen call (Species: MOUSE, Route: INTRAPERITONEAL, Tumor Site: Type of Lesion: LUNG) is reported as “active; positive”. For the same compound, the carcinogen call (Species: MOUSE, Strain/Sex: CFLP/FEMALE, Route: DERMAL, Dose: 0, 12.5, 50, 200 UG IN ACETONE 2 D/WK FOR 104 WK (STUDY DURATION: 24 MO), Dose: 0, 12.5, 50, 200 UG IN ACETONE 2 D/WK FOR 104 WK (STUDY DURATION: 24 MO)) was “inactive; negative”, the carcinogen call (Species: MOUSE, Strain/Sex: STRAIN-A/FEMALE, Route: INTRAPERITONEAL, Dose: 0, 40, 200 UMOL TOTAL DOSE ADMINISTERED IN SUBDOSES 3/WK FOR 7 WK (STUDY DURATION: 37 WK), Dose: 0, 40, 200 UMOL TOTAL DOSE ADMINISTERED IN SUBDOSES 3/WK FOR 7 WK (STUDY DURATION: 37 WK), Tumor Site: Type of Lesion: LUNG: TUMOR) was “active; positive” and the carcinogen call (Species: RAT, Route: ORAL, Tumor Site: Type of Lesion: ESOPHAGUS, NASAL CAVITY) was “active; positive”. For the same compound, the carcinogen call (Species: RAT, Strain/Sex: F344/FEMALE, Route: SUBCUTANEOUS, Dose: 0, 1, 3, 9 MMOL/KG BW (TOTAL DOSE) WITH SUBDOSES GIVEN 3/WK FOR 20 WK WITH A 2 WK INTERRUPTION AFTER 7 WK (STUDY DURATIO, Dose: 0, 1, 3, 9 MMOL/KG BW (TOTAL DOSE) WITH SUBDOSES GIVEN 3/WK FOR 20 WK WITH A 2 WK INTERRUPTION AFTER 7 WK (STUDY DURATIO, Tumor Site: Type of Lesion: NASAL CAVITY: TUMORS, ESOPHAGUS: BENIGN TUMORS) was “active; positive” and the carcinogen call (Species: RAT, Strain/Sex: F344/MALE, Route: SUBCUTANEOUS, Dose: 0, 1, 3, 9 MMOL/KG BW (TOTAL DOSE) WITH SUBDOSES GIVEN 3/WK FOR 20 WK WITH A 2 WK INTERRUPTION AFTER 7 WK (STUDY DURATIO, Dose: 0, 1, 3, 9 MMOL/KG BW (TOTAL DOSE) WITH SUBDOSES GIVEN 3/WK FOR 20 WK WITH A 2 WK INTERRUPTION AFTER 7 WK (STUDY DURATIO, Tumor Site: Type of Lesion: NASAL CAVITY: TUMORS, LUNG: TUMORS, ESOPHAGUS: BENIGN TUMORS, Tumor Site: Type of Lesion: NASAL CAVITY: TUMORS, LUNG: TUMORS, ESOPHAGUS: BENIGN TUMORS) was “active; positive”.
